Results taken from patent publication US11130780B2, “Inhibitors of growth factor activation enzymes” (Washington University, priority 2015, dated 2021).
Read-outs that look alike come from different tables or passages of the source.

Columns and labels:
Format in all cases: biochemical
[1] = biological target: T1, HGFA (Homo sapiens, UniProt Q04756); assay: Chromogenic kinetic enzyme inhibitor assay of HGFA; conditions: Table 4.1; chromogenic substrate Pefachrome FVIIa
T1 construct: His6 tag (N); seven amino acid spacer and seven amino acid TEV cleavage site (N); Honey Bee melittin signal peptide (N); made in house; host or cells: High 5 insect cells (baculovirus; virus raised in Sf9)
T1 sequence (Q04756 373-655): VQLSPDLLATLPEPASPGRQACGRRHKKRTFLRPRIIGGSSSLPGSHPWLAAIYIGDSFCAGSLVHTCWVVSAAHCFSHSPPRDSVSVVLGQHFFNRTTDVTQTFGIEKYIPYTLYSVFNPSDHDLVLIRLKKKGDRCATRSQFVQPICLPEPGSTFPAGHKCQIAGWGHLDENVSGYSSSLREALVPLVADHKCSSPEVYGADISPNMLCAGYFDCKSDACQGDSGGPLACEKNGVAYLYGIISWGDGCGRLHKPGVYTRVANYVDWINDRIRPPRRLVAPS
Source text: This PCR product was cloned into the SfoI-HindIII sites of a modified pFastBac HT baculovirus expression vector (Addgene, Cambridge, Mass.). This vector contains a six amino His tag followed by a seven amino spacer and a seven amino acid TEV cleavage site placed immediately downstream of the Honey Bee melittin signal peptide. Using a modified Bac to Bac Expression System (Life Technologies, Carlsbad, Calif.), recombinant HGFA bacmids were obtained by transforming DH10Bac Escherichia coli cells. To obtain HGFA containing baculovirus, purified bacmids were transfected into Sf9 insect cells. After 5 days in culture at 27° C., media was harvested from transfected Sf9 cells. This media was used to prepare baculovirus infected insect cells (BIICs). These BIIICs were used to infect High 5 insect cells. Four days post infection, media was harvested and recombinant protein prepared as follows. Media was chilled to 4° C. and spun at 4000×g for 20 minutes (all subsequent steps were performed at 4° C. unless noted). […] Concentrated media was then buffer exchanged in two steps, five volumes of 50 mM Na-phosphate, 500 mM NaCl, pH 6.2, followed by five volumes of 50 mM Na-phosphate, 500 mM NaCl, pH 7.5. […] After mixing this slurry for 12 hours, nickel agarose beads were allowed to settle by gravity and then loaded into a column. Beads were washed with buffer (25 mM Na-phosphate, 500 mM NaCl, 25 mM imidazole, pH 8) and the bound protein eluted using (25 mM Na-phosphate, 500 mM NaCl, 250 mM imidazole, pH 8). Using a Amicon Ultra-4 Centrifugal filters (#UFC801008, Merck Millipore, Ltd., Tullagreen, Ireland), peak protein fractions were concentrated and run over a Superdex-200 10/300 GL column (GE Healthcare Life Sciences, Piscataway, N.J.) in 10 mM Tris, 200 mM NaCl, 0.2 mM EDTA, pH 8. HGFA containing fractions were pooled, concentrated, made 50% glycerol, and stored at minus 20° C. Protein was quantitated using a modified Lowry protein assay (#500-0006, Bio-Rad Laboratories, Hercules, Calif.).
Using Gen 5 2.00 software program (Biotek, Winnoski, Vt.), a four parameter curve fit was used to determine the inhibitor IC50s from a plot of the mean reaction velocity versus the inhibitor concentration. The IC50 values represent the average of three separate experimental determinations.

[2] = biological target: Factor Xa (Homo sapiens, UniProt P00742); assay: Chromogenic kinetic enzyme assay of Factor Xa; conditions: Table 4.1; read-out: Factor Xa Ki
Description: Inhibitors (11-pt serial dilutions, 0-20 μM final concentration) were serially diluted in DMSO (2% DMSO final concentration) and then mixed with recombinant thrombin (0.15 nM final concentration) or Factor Xa (0.35 nM final concentration) in TNC buffer (25 mM Tris, 150 mM NaCl, 5 mM CaCl2, 0.01% TRITON X-100, pH 8) using clear 384 well plates. […] Changes in absorbance at 405 nm were measured over time in a Biotek Synergy 2 plate (Winnoski, Vt.). Using GraphPad Prism version 6.04 software program, (GraphPad Software, San Diego, Calif., www.graphpad.com), a four parameter curve fit was used to determine the inhibitor IC50s from a plot of the mean reaction velocity versus the inhibitor concentration. Ki values were calculated from the IC50 values using the Cheng and Prusoff equation (Ki=IC50/(1+[S]/Km).

[3] = biological target: T2, matriptase (Homo sapiens, UniProt Q9Y5Y6); assay: Fluorescent kinetic enzyme inhibitor assay of matriptase; conditions: for IC50: Table 4.1; for Ki: Table 4.2, Boc-QAR-AMC substrate
T2 construct: Charles Craik, UCSF (obtained from another laboratory)
T2 sequence (Q9Y5Y6 615-855 limits assumed): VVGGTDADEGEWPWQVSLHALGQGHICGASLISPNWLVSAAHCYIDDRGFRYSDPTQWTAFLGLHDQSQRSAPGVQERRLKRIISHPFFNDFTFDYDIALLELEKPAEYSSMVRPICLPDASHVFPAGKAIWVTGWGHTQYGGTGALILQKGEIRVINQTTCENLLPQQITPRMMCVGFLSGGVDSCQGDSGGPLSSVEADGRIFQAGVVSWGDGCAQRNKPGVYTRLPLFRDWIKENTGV
In short: (§1)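 Fluorescence (ex 380/em 460 nm) followed kinetically at room temperature; IC50 from four-parameter fit of mean velocity versus concentration, averaged over three experiments.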

[4] = biological target: T3, hepsin (Homo sapiens, UniProt P05981); assay: Fluorescent kinetic enzyme inhibitor assay of hepsin; conditions: for IC50: Table 4.1
T3 construct: purchased R&D Systems 4776-SE-010
In short: as §1

[5] = Table 4.2, Boc-QAR-AMC substrate, read-out: Hepsin Ki

Sequence of Factor Xa (P00742 235-488 limits assumed): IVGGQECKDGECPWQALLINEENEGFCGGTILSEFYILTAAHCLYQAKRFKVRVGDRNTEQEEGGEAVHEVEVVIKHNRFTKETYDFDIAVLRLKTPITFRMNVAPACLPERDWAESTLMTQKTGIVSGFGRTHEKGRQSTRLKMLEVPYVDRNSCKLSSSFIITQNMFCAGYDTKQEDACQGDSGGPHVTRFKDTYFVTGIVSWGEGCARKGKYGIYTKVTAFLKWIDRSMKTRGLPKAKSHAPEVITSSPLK
Sequence of Factor Xa (P00742 41-179 partner limits assumed): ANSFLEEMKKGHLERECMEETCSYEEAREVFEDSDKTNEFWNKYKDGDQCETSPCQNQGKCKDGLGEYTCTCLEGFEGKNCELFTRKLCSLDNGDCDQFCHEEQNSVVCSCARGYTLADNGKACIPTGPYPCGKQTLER
T3 sequence (P05981 163-417 limits assumed): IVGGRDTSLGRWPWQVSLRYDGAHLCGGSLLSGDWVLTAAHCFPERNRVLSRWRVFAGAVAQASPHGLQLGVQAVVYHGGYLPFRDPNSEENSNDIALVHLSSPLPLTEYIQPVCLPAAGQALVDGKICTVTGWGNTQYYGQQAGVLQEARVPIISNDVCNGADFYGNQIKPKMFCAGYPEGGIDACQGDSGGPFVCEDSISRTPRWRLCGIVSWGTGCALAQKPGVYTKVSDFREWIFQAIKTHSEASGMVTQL
T3 sequence (P05981 45-162 partner limits assumed): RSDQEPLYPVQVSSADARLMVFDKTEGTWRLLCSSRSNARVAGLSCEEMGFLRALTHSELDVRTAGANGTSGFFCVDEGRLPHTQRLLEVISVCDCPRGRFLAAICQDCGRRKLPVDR

CC(=O)N[C@@H](CCCCN)C(=O)N[C@@H](CCC(N)=O)C(=O)N[C@@H](CC(C)C)C(=O)N[C@@H](CCCNC(=N)N)C(=O)c1nccs1 [Compound 5, Ac-KQLR(SEQ ID NO: 1)-kt] was tested, and the IC50 [1] was 0.445 µM, the Ki [2] was 0.17 µM and the “fold more potent for matriptase versus HGFA” value [3] was 50 fold. The IC50 [3] was 0.005 µM, the Ki [3] was 0.0016 µM and the “fold more potent for hepsin versus HGFA” value [4] was 200 fold. It also gave an IC50 [4] of 0.002 µM and a Ki [4, 5] of 0.00019 µM.

CC(=O)N[C@@H](CCCCN)C(=O)N[C@@H](CCC(N)=O)C(=O)N[C@@H](Cc1ccccc1)C(=O)N[C@@H](CCCNC(=N)N)C(=O)c1nccs1 [Compound 5c, Ac-KQFR(SEQ ID NO: 4)-kt] showed an IC50 [1] of 0.47 µM, a Ki [2] of 0.0788 µM and a Ki [3] of 0.00069 µM. For the same compound, the Ki [4, 5] was 0.00058 µM.

CC(=O)N[C@@H](CCCNC(=N)N)C(=O)N[C@@H](CCC(N)=O)C(=O)N[C@@H](CC(C)C)C(=O)N[C@@H](CCCNC(=N)N)C(=O)c1nccs1 [Compound 5e, Ac-RQLR(SEQ ID NO: 6)-kt] was tested, and the IC50 [1] was 0.27 µM, the Ki [2] was 0.0081 µM and the IC50 [3] was 0.001 µM. For the same compound, the IC50 [4] was 0.001 µM.

For CC(=O)N[C@@H](CCCCN)C(=O)N[C@@H](CCCNC(=N)N)C(=O)N[C@@H](CC(C)C)C(=O)N[C@@H](CCCNC(=N)N)C(=O)c1nccs1 [Compound 5g, Ac-KRLR(SEQ ID NO: 8)-kt], the IC50 [1] was 0.225 µM, the IC50 [3] was 0.014 µM and the IC50 [4] was 0.005 µM.

Work on CC(=O)N[C@@H](Cc1c[nH]c2ccccc12)C(=O)N[C@@H](CCCNC(=N)N)C(=O)N[C@@H](CC(C)C)C(=O)N[C@@H](CCCNC(=N)N)C(=O)c1nccs1 [Compound 5h, Ac-WRLR(SEQ ID NO: 9)-kt] yielded an IC50 [1] of 0.275 µM, an IC50 [3] of 0.031 µM and an IC50 [4] of 0.0003 µM. It also gave a Ki [4, 5] of 0.00021 µM.

For CC(=O)N[C@@H](CO)C(=O)N[C@@H](CCCCN)C(=O)N[C@@H](CC(C)C)C(=O)N[C@@H](CCCNC(=N)N)C(=O)c1nccs1 [Compound 6, Ac-SKLR(SEQ ID NO: 10)-kt], the IC50 [1] was 0.56 µM, the Ki [2] was 3.06 µM and the “fold more potent for matriptase versus HGFA” value [3] was “only slightly more potent”. The IC50 [3] was 0.048 µM, the “fold more potent for hepsin versus HGFA” value [4] was 70 fold and the Ki [4, 5] was 0.0012 µM.

CC(=O)N[C@@H](CO)C(=O)N[C@@H](CCCCN)C(=O)N[C@@H](Cc1ccccc1)C(=O)N[C@@H](CCCNC(=N)N)C(=O)c1nccs1 [Compound 6c, Ac-SKFR(SEQ ID NO: 13)-kt] gave an IC50 [1] of 0.52 µM, a Ki [2] of 0.53 µM and an IC50 [3] of 0.034 µM. For the same compound, the IC50 [4] was 0.051 µM.

In the case of CC(=O)N[C@@H](CO)C(=O)N[C@@H](CCCNC(=N)N)C(=O)N[C@@H](CC(C)C)C(=O)N[C@@H](CCCNC(=N)N)C(=O)c1nccs1 [Compound 6e, Ac-SRLR(SEQ ID NO: 15)-kt], the IC50 [1] is reported as 0.303 µM, the IC50 [3] is reported as 0.024 µM and the IC50 [4] is reported as 0.005 µM.

With CC(=O)N[C@@H](CO)C(=O)N[C@@H](Cc1c[nH]c2ccccc12)C(=O)N[C@@H](CC(C)C)C(=O)N[C@@H](CCCNC(=N)N)C(=O)c1nccs1 [Compound 6g, Ac-SWLR(SEQ ID NO: 17)-kt] the IC50 [1] was 0.435 µM, the Ki [2] was 0.759 µM and the IC50 [3] was 0.175 µM. The IC50 [4] was 0.009 µM and the Ki ([4]; read-out: Ki for hepsin) was 0.0012 µM.

Work on N=C(N)c1ccc2cc(OC(=O)c3ccc(N=C(N)N)cc3)ccc2c1 [Nafamostat, reference compound] yielded an IC50 [1] of 0.8 µM, an IC50 [4] of 0.002 µM and a Ki [4, 5] of 0.00053 µM.
